Data reported in patent US8716281B2, “Pyrimidine compounds that inhibit anaplastic lymphoma kinase” (Amgen Inc., priority 2010, dated 2014).

Molecular target: T1, wild-type human ALK cytoplasmic domain (amino acids 1058-1620) (Homo sapiens, UniProt Q9UM73)
T1 construct: The cytoplasmic domain (amino acids 1058-1620) of wild-type human ALK; GST (N); made in house; host or cells: SF9 insect cells
Assay: ALK Inhibition in Enzyme Assay (Lance TR-FRET)
Format: biochemical
Conditions: 2 nM enzyme, ATP at 40 μM (Km apparent), 90 minutes, mean of three replicates; read-out: ALK IC50
Method in brief: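 Purified enzyme phosphorylated a biotinylated peptide substrate for 90 minutes at room temperature. Reactions were stopped with 20 mM EDTA in 50 mM Tris (pH 7.5), 100 mM NaCl, 0.05% BSA, 0.1% Tween-20. Phosphopeptide was detected by TR-FRET with SA-APC and Eu-W1024 anti-phosphotyrosine antibody PT66, excitation 320 nm.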

T1 sequence (Q9UM73 1058-1620): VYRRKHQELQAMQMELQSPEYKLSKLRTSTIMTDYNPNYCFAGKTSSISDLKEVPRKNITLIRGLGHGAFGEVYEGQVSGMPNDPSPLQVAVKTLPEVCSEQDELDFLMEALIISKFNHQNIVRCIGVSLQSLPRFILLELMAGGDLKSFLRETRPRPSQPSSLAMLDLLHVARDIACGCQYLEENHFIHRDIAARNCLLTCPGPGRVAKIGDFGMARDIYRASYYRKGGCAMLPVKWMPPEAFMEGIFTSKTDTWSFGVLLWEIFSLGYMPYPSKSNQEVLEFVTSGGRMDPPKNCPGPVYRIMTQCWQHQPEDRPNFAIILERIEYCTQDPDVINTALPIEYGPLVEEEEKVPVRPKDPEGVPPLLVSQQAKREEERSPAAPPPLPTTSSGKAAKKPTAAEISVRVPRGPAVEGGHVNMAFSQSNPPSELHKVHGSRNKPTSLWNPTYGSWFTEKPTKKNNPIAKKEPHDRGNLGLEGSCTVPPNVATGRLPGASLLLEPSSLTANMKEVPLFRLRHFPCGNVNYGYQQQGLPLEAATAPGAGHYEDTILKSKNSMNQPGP

IC50 [µM]	Structure (SMILES)
0.05 to 0.1	Cc1ccc(CNC(=O)[C@H]2CCCN(c3ccnc(Nc4cc(OC[C@H]5CCCN5C)cc(C(F)(F)F)c4)n3)C2)cc1 [Example 190, (S)-N-(4-methylbenzyl)-1-(2-(3-(((R)-1-methylpyrrolidin-2-yl)methoxy)-5-(trifluoromethyl)phenylamino)pyrimidin-4-yl)piperidine-3-carboxamide]
1 to 5	Cc1ccc(CNC(=O)[C@H]2CCCN(c3ccnc(Nc4ccc(-n5cncn5)cc4)n3)C2)cc1 [Example 191, (S)-1-(2-(4-(1H-1,2,4-triazol-1-yl)phenylamino)pyrimidin-4-yl)-N-(4-methylbenzyl)piperidine-3-carboxamide]
1 to 5	CCOc1ccc(Nc2nccc(N3CCC[C@H](C(=O)NCc4ccc(C)cc4)C3)n2)cc1 [Example 192, (S)-1-(2-(4-ethoxyphenylamino)pyrimidin-4-yl)-N-(4-methylbenzyl)piperidine-3-carboxamide]
1 to 5	Cc1ccc(CNC(=O)[C@H]2CCCN(c3ccnc(Nc4ccc(N5CCNC(=O)C5)nc4)n3)C2)cc1 [Example 193, (S)-N-(4-methylbenzyl)-1-(2-(6-(3-oxopiperazin-1-yl)pyridin-3-ylamino)pyrimidin-4-yl)piperidine-3-carboxamide]
